In PMC7377239, “Cardiovascular Effects of Polychlorinated Biphenyls and Their Major Metabolites” (Environmental Health Perspectives, 2020):
Where two headings read alike, the source gives them in different places.

Key:
[1] = tested on: iCell endothelial cells (human iPSC-derived ECs); assay: Tube formation (tubulogenesis) assay in iCell endothelial cells, 18 h; type: cell-based; conditions: for endo.tlps.18hr / endo.tta.18hr / endo.ttl.18hr / endo.mtl.18hr: 0.00 µM = 100.00
Procedure, shortened: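 Tube formation was measured by calcein AM imaging after overnight compound exposure (37°C, 0.5% DMSO vehicle) of human iPSC-derived ECs, 7,500/well, on reduced-growth-factor Geltrex in starvation medium. Vehicle-normalized data fitted to four-parameter logistic; POD set at one vehicle SD; without response, 100 μM taken as NOAEL.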

[2] = tested on: HUVECs; assay: Tube formation (tubulogenesis) assay in HUVECs, 18 h; type: cell-based, human; conditions: for huvec.tta.18hr / huvec.tlps.18hr / huvec.mtl.18hr / huvec.ttl.18hr: 0.00 µM = 100.00; for minimal effective concentration / activity at 0.01 µM / activity at 0.1 µM / activity at 1 µM / activity at 10 µM / activity at 100 µM: Homo sapiens, HUVEC, 18 h
Procedure, shortened: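 HUVECs (passage 1–5) seeded on reduced-growth-factor basement membrane and exposed to compounds overnight at 37°C, 5% CO2, in 2× maintenance medium with 12.5 ng/mL VEGF; 0.5% DMSO vehicle. Calcein AM-stained tube networks imaged and analysed; vehicle-normalized readouts fit to four-parameter logistic, POD set at one SD of vehicle means.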

[3] = HUVECs tube formation, concentration 0.01 µM
[4] = HUVECs tube formation, concentration 0.10 µM
[5] = HUVECs tube formation, concentration 100.00 µM
[6] = HUVECs tube formation, concentration 1.00 µM
[7] = HUVECs tube formation, concentration 10.00 µM

Q: Which results are given for Clc1ccc(Cl)c(-c2c(Cl)ccc(Cl)c2Cl)c1Cl [(+)-PCB 136, 2,2′,3,3′,6,6′-hexachlorobiphenyl]?
A: minimal effective concentration ([1]; Homo sapiens, Endothelial cell, endothelial cells (endo), tube formation mtl, 18 hr, read-out: POD endo.mtl.18hr): 63.5 µM; activity at 0.01 µM ([1]; Homo sapiens, Endothelial cell, iPSC-EC, 0.01 µM, 0.00 µM = 100.00, read-out: endo.mtl.18hr): 115%; activity at 0.01 µM ([1]; Homo sapiens, Endothelial cell, iPSC-EC, 0.01 µM, 0.00 µM = 100.00, read-out: endo.tta.18hr): 133%; activity at 0.01 µM ([1]; Homo sapiens, Endothelial cell, iPSC-EC, 0.01 µM, 0.00 µM = 100.00, read-out: endo.ttl.18hr): 135%; activity at 0.1 µM ([1]; Homo sapiens, Endothelial cell, iPSC-EC, 0.10 µM, 0.00 µM = 100.00, read-out: endo.mtl.18hr): 113%; activity at 0.1 µM ([1]; Homo sapiens, Endothelial cell, iPSC-EC, 0.10 µM, 0.00 µM = 100.00, read-out: endo.ttl.18hr): 132%; activity at 1 µM ([1]; Homo sapiens, Endothelial cell, iPSC-EC, 1.00 µM, 0.00 µM = 100.00, read-out: endo.mtl.18hr): 111%; activity at 1 µM ([1]; Homo sapiens, Endothelial cell, iPSC-EC, 1.00 µM, 0.00 µM = 100.00, read-out: endo.tta.18hr): 134%; activity at 1 µM ([1]; Homo sapiens, Endothelial cell, iPSC-EC, 1.00 µM, 0.00 µM = 100.00, read-out: endo.ttl.18hr): 139%; activity at 10 µM ([1]; Homo sapiens, Endothelial cell, iPSC-EC, 10.00 µM, 0.00 µM = 100.00, read-out: endo.mtl.18hr): 107%; minimal effective concentration ([1]; Homo sapiens, Endothelial cell, iPSC-EC, 100.00 = highest concentration tested, read-out: endo.mtl.18hr POD): 63.5 µM; endo.tlps.18hr ([1]; iPSC-EC, 0.01 µM): 101.49; endo.tlps.18hr ([1]; iPSC-EC, 0.10 µM): 128.16; endo.tta.18hr ([1]; iPSC-EC, 0.10 µM): 137.60; endo.tlps.18hr ([1]; iPSC-EC, 1.00 µM): 103.43; endo.tlps.18hr ([1]; iPSC-EC, 10.00 µM): 157.84; endo.tta.18hr ([1]; iPSC-EC, 10.00 µM): 197.38; endo.ttl.18hr ([1]; iPSC-EC, 10.00 µM): 177.54; endo.mtl.18hr ([1]; iPSC-EC, 100.00 µM): 68.39; endo.tlps.18hr ([1]; iPSC-EC, 100.00 µM): 43.04; endo.tta.18hr ([1]; iPSC-EC, 100.00 µM): 78.91; endo.ttl.18hr ([1]; iPSC-EC, 100.00 µM): 80.17; huvec.tta.18hr [2, 3]: 108.86; huvec.tlps.18hr [2, 4]: 71.77; huvec.tta.18hr [2, 5]: 92.04; minimal effective concentration ([2]; tube formation mtl, read-out: POD huvec.mtl.18hr): 13.4 µM; minimal effective concentration ([2]; tube formation tta, read-out: POD huvec.tta.18hr): 100 µM; minimal effective concentration ([2]; tube formation ttl, read-out: POD huvec.ttl.18hr): 100 µM; minimal effective concentration ([2]; HUVECs tube formation, MAX 100.00, read-out: huvec.mtl.18hr POD): 13.4 µM; minimal effective concentration ([2]; HUVECs tube formation, MAX 100.00, read-out: huvec.tta.18hr POD): 100 µM; minimal effective concentration ([2]; HUVECs tube formation, MAX 100.00, read-out: huvec.ttl.18hr POD): 100 µM; activity at 0.01 µM ([2]; HUVECs tube formation, concentration 0.01 µM, 0.00 µM = 100.00, read-out: huvec.mtl.18hr): 92.2%; activity at 0.01 µM ([2]; HUVECs tube formation, concentration 0.01 µM, 0.00 µM = 100.00, read-out: huvec.tlps.18hr): 82.7%; activity at 0.01 µM ([2]; HUVECs tube formation, concentration 0.01 µM, 0.00 µM = 100.00, read-out: huvec.ttl.18hr): 105%; activity at 0.1 µM ([2]; HUVECs tube formation, concentration 0.10 µM, 0.00 µM = 100.00, read-out: huvec.mtl.18hr): 93.1%; activity at 0.1 µM ([2]; HUVECs tube formation, concentration 0.10 µM, 0.00 µM = 100.00, read-out: huvec.tta.18hr): 107%; activity at 0.1 µM ([2]; HUVECs tube formation, concentration 0.10 µM, 0.00 µM = 100.00, read-out: huvec.ttl.18hr): 105%; activity at 1 µM ([2]; HUVECs tube formation, concentration 1.00 µM, 0.00 µM = 100.00, read-out: huvec.mtl.18hr): 96.3%; activity at 1 µM ([2]; HUVECs tube formation, concentration 1.00 µM, 0.00 µM = 100.00, read-out: huvec.tlps.18hr): 98.7%; activity at 1 µM ([2]; HUVECs tube formation, concentration 1.00 µM, 0.00 µM = 100.00, read-out: huvec.tta.18hr): 102%; activity at 1 µM ([2]; HUVECs tube formation, concentration 1.00 µM, 0.00 µM = 100.00, read-out: huvec.ttl.18hr): 99.6%; activity at 10 µM ([2]; HUVECs tube formation, concentration 10.00 µM, 0.00 µM = 100.00, read-out: huvec.mtl.18hr): 92.5%; activity at 10 µM ([2]; HUVECs tube formation, concentration 10.00 µM, 0.00 µM = 100.00, read-out: huvec.tlps.18hr): 100%; activity at 10 µM ([2]; HUVECs tube formation, concentration 10.00 µM, 0.00 µM = 100.00, read-out: huvec.tta.18hr): 112%; activity at 10 µM ([2]; HUVECs tube formation, concentration 10.00 µM, 0.00 µM = 100.00, read-out: huvec.ttl.18hr): 104%; activity at 100 µM ([2]; HUVECs tube formation, concentration 100.00 µM, 0.00 µM = 100.00, read-out: huvec.mtl.18hr): 64.5%; activity at 100 µM ([2]; HUVECs tube formation, concentration 100.00 µM, 0.00 µM = 100.00, read-out: huvec.tlps.18hr): 73.3%; activity at 100 µM ([2]; HUVECs tube formation, concentration 100.00 µM, 0.00 µM = 100.00, read-out: huvec.ttl.18hr): 83.9%

Q: Clc1ccc(Cl)c(-c2c(Cl)ccc(Cl)c2Cl)c1Cl [(-)-PCB 136, 2,2′,3,3′,6,6′-hexachlorobiphenyl] was tested. Which endo.mtl.18hr ([1]; iPSC-EC, 0.01 µM) did it give?
A: 102.71

Q: What about the endo.tlps.18hr ([1]; iPSC-EC, 0.01 µM) of the same compound?
A: 139.80

Q: And the endo.tta.18hr ([1]; iPSC-EC, 0.01 µM)?
A: 138.00

Q: What about the endo.ttl.18hr ([1]; iPSC-EC, 0.01 µM) of the same compound?
A: 138.93

Q: And the endo.mtl.18hr ([1]; iPSC-EC, 0.10 µM)?
A: 112.13

Q: And the endo.tlps.18hr ([1]; iPSC-EC, 0.10 µM)?
A: 103.80

Q: And the endo.tta.18hr ([1]; iPSC-EC, 0.10 µM)?
A: 103.27

Q: And the endo.ttl.18hr ([1]; iPSC-EC, 0.10 µM)?
A: 116.27

Q: What about the endo.mtl.18hr ([1]; iPSC-EC, 1.00 µM) of the same compound?
A: 102.66

Q: What about the endo.tlps.18hr ([1]; iPSC-EC, 1.00 µM) of the same compound?
A: 134.14

Q: And the endo.tta.18hr ([1]; iPSC-EC, 1.00 µM)?
A: 146.36

Q: What about the endo.ttl.18hr ([1]; iPSC-EC, 1.00 µM) of the same compound?
A: 142.63

Q: And the endo.mtl.18hr ([1]; iPSC-EC, 10.00 µM)?
A: 114.95

Q: What about the endo.tlps.18hr ([1]; iPSC-EC, 10.00 µM) of the same compound?
A: 133.39

Q: And the endo.tta.18hr ([1]; iPSC-EC, 10.00 µM)?
A: 144.91

Q: What about the endo.ttl.18hr ([1]; iPSC-EC, 10.00 µM) of the same compound?
A: 148.25

Q: And the endo.mtl.18hr ([1]; iPSC-EC, 100.00 µM)?
A: 40.89

Q: What about the endo.tlps.18hr ([1]; iPSC-EC, 100.00 µM) of the same compound?
A: 14.11

Q: And the endo.tta.18hr ([1]; iPSC-EC, 100.00 µM)?
A: 1.36

Q: What about the endo.ttl.18hr ([1]; iPSC-EC, 100.00 µM) of the same compound?
A: 1.73

Q: What about the huvec.mtl.18hr [2, 3] of the same compound?
A: 89.52

Q: What about the huvec.tlps.18hr [2, 3] of the same compound?
A: 87.45

Q: What about the huvec.tta.18hr [2, 3] of the same compound?
A: 86.96

Q: And the huvec.ttl.18hr [2, 3]?
A: 85.21

Q: And the huvec.mtl.18hr [2, 4]?
A: 105.15

Q: What about the huvec.tlps.18hr [2, 4] of the same compound?
A: 104.95

Q: What about the huvec.tta.18hr [2, 4] of the same compound?
A: 96.50

Q: What about the huvec.ttl.18hr [2, 4] of the same compound?
A: 89.39

Q: What about the huvec.mtl.18hr [2, 6] of the same compound?
A: 101.33

Q: And the huvec.tlps.18hr [2, 6]?
A: 99.50

Q: What about the huvec.tta.18hr [2, 6] of the same compound?
A: 114.69

Q: And the huvec.ttl.18hr [2, 6]?
A: 103.47

Q: And the huvec.mtl.18hr [2, 7]?
A: 94.11

Q: What about the huvec.tlps.18hr [2, 7] of the same compound?
A: 92.84

Q: What about the huvec.tta.18hr [2, 7] of the same compound?
A: 112.35

Q: What about the huvec.ttl.18hr [2, 7] of the same compound?
A: 101.40

Q: And the huvec.mtl.18hr [2, 5]?
A: 75.12

Q: What about the huvec.tlps.18hr [2, 5] of the same compound?
A: 53.61

Q: And the huvec.tta.18hr [2, 5]?
A: 117.52

Q: And the huvec.ttl.18hr [2, 5]?
A: 95.13
